Legend:
[1] = tested on: A549 lung cancer cell line; test: Influence of hits on growth of A549 cancer cells (total LDH after lysis); type: cell-based; details: 48 h
Description: The cells were cultured for 6 h in the presence or absence of the hits, and then for 42 h. Finally, the cells were lysed with lysis buffer and the amount of LDH was measured to evaluate the total cell growth.
A colorimetric assay was used to measure lactate dehydrogenase (LDH), a cytosolic enzyme which is released during permeabilization of the plasma membrane (Promega G1780). The assay was performed using cell culture supernatants obtained from H9C2 or RNVC (rat neonatal ventricular myocyte) cells and lysis buffer (LB) was used as a positive control for total cell lysis. The LDH release was measured by absorbance reading at 490 nm (Infinite spectrofluorimeter, Tecan).
The effect of the compounds was then evaluated on primary rat neonatal ventricular cardiomyocytes (RNVCs) using the LDH test and propidium iodide staining. […] The absence of proliferative effects of the compounds was also evaluated on the A549 lung cancer cell line for 48 h (FIG. 2C).

H9C2 cells = test: Mitochondrial morphology and abundance by transmission electron microscopy; type: cell-based, rat; details: compared to DMSO; for mitochondrial number, size and morphology by transmission electron microscopy: 1 μM
Description: The cells were treated with a vehicle (0.01% DMSO), 1 μM digoxin, 1 μM SG6163F, 10 μM SG6163F, fixed with glutaraldehyde and analyzed by transmission electron microscopy. The cells treated with digoxin and with 10 μM SG6163F have many shorter round mitochondria compared with the control which has long thin mitochondria (FIG. 7B, FIG. 7D versus FIG. 7A).
Transmission electron microscopy. For ultrastructural analysis, the cells were fixed in 1.6% glutaraldehyde in a 0.1 M phosphate buffer, rinsed in a 0.1 M cacodylate buffer, and post-fixed for 1 h in 1% osmium tetroxide and 1% potassium ferrocyanide in a 0.1 M cacodylate buffer to improve the coloration of the membranes. The cells were rinsed in distilled water, dehydrated in alcohols and finally embedded in epoxy resin. Contrasting ultrafine sections (70 nm) were analyzed under a JEOL 1400 transmission electron microscope with a Morada Olympus CCD camera.
(§1) Due to the importance of mitochondria and reactive oxygen species (ROS) levels in the fate of cardiomyocyte cells, the hypothesis that the compounds could impact the mitochondrial network was explored. Following treatment of the RNVCs with the compounds tested, the mitochondrial network was stained with 200 nM of Mitotracker and the cell volume with 4 μM of calcein-AM. Thus, the mitochondrial network and the individual mitochondria were then analyzed using the IMARIS software.

BAX = test: Western blot of BAX expression in RNVCs; type: cell-based, rat; details: 6 h treatment
Description: Levels of protein expression of BCL-2 (FIG. 3A and FIG. 3B) BXL-XL (FIG. 3C) and BAX (FIG. 3C), in the RNVCs after 6 h of treatment (FIG. 3A, FIG. 3C, FIG. 3D) or 24 h (FIG. 3B). Co., untreated cell control. Each experiment was reproduced at least three times. Representative western blotting images and quantification of three independent experiments are presented as mean±SEM with single-factor ANOVA, with multiple Sidak comparisons. *, p<0.05 with respect to DMSO.
(§2) The H9C2 cells and RNVCs were detached in LB containing: 50 mM Tris, 150 mM NaCl, 1 mM EDTA, 0.5% deoxycholate, 1% Triton X 100, 0.1% SDS (pH 8.0). The cells were collected and placed on ice for 30 minutes. The cells were then centrifuged at 2000 g for 20 minutes at for 4° C. The supernatant was transferred to a new tube and stored on ice. The protein concentration was determined by BCA assay. The protein samples were diluted with sample buffer (2× Laemmli, Sigma), mixed, and heated for 5 minutes at 95° C. […] The images were recorded with a gel imaging system (Bio Rad). […]

RNVCs = test: Mitochondrial network and cell volume by confocal microscopy (Mitotracker, calcein-AM, IMARIS); type: cell-based, rat; details: 1 and 10 μM, 6 h
Description: FIG. 6. Effects on mitochondrial dynamics by fluorescence microscopy The RNVCs were treated with 1 μM hits (FIG. 6A) and 10 μM hits (FIG. 6B) for 6 h and the mitochondrial network was stained with 200 nM of Mitotracker. The mitochondrial network and individual mitochondria were then analyzed using a Leica confocal microscope and IMARIS software. Data are presented as mean±SEM with single-factor ANOVA, and multiple Sidak comparisons. *, p<0.05, **, p<0.01, ***, p<0.001 with respect to DMSO.
FIG. 11: following the treatment of the RNVCs with the compounds as indicated, the cell volume was stained with 4 μM of calcein-AM. The cell volume was then analyzed using the IMARIS software.
Confocal microscopy. On day 0, 4×10^5 neonatal cardiomyocytes were plated overnight on laminin-coated 35 mm culture dishes (10 μg/ml). On day 1, the cells were treated with various compounds at 1 or 10 μM for 6 hours. The cells were incubated with Mitotracker Red 580 at 200 nM for 20 minutes at 37° C., then 4 μM of calcein (Calcein AM, Life Technologies, St Aubin, France) for 10 minutes at 37° C. The images were acquired with a Leica confocal microscope (SP5) (Mannheim, Germany). The mitochondrial network and the 3D model of cell volume were reconstructed using the IMARIS software (Bitplane Company, Zurich, Switzerland); therefore the cell volume, mitochondrial number and volume were analyzed.
as §1

MFN2 = test: Western blot of MFN2 in RNVCs; type: cell-based, rat
Description: FIG. 6C: MFN1 and MFN2 protein levels in RNVCs analyzed by western blotting.
as §2
Due to the importance of mitochondria and reactive oxygen species (ROS) levels in the fate of cardiomyocyte cells, the hypothesis that the compounds could impact the mitochondrial network was explored. […] Thus, the mitochondrial network and the individual mitochondria were then analyzed using the IMARIS software.

SMILES	effect on A549 cell growth [1]	mitochondrial number, size and morphology by transmission electron microscopy (H9C2 cells)	expression of pro-apoptotic BAX protein (BAX)	number of mitochondria (RNVCs)	total mitochondrial volume per cell (RNVCs)	expression of fusion protein MNF2 (MFN2)	mitochondrial number and size by transmission electron microscopy (H9C2 cells; 10 μM)
C[C@H]1O[C@@H](O[C@H]2[C@@H](O)C[C@H](O[C@H]3[C@@H](O)CC(O[C@H]4CC[C@@]5(C)[C@H](CC[C@@H]6[C@@H]5C[C@@H](O)[C@]5(C)[C@@H](C7=CC(=O)OC7)CC[C@]65O)C4)O[C@@H]3C)O[C@@H]2C)C[C@H](O)[C@@H]1O (stereo partly shown) [digoxin]	significantly reduced cell growth and induced cell death	increase in the number of mitochondria and a decrease in their size	significantly decreased	increased	increased	decreased	
C[C@]12CC[C@H](O)C[C@H]1CC[C@@H]1[C@@H]2CC[C@]2(C)[C@@H](C3=CC(=O)OC3)CC[C@]12O [digitoxigenin]	significantly reduced cell growth and induced cell death			increased	increased	decreased	
O=C1NC(c2ccccc2)=N/C1=C\c1cc2ccccc2c2ccccc12 [SG6163F]	no proliferative effect	did not affect the morphology of the mitochondria	significantly decreased	increased	increased		increase in the number of mitochondria and a decrease in their size
